Measured values taken from patent US7105679B2, “Heteroatom containing tetracyclic derivatives as selective estrogen receptor modulators” (priority 2001, dated 2006).
Several values for one entry are separate records, joined by “and”; a condition that tells them apart may be missing. Identical values can stand only once.

Key:
MCF-7 cells = experiment: MCF-7 Cell Proliferation Assay (14C-thymidine, agonist and antagonist mode); format: cell-based; conditions: number in brackets = number of tests, NA = no detected activity at test concentration
Protocol: This assay was run according to the procedure described by Welshons, et al., (Breast Cancer Res. Treat., 1987, 10(2), 169-75), with minor modification.
Briefly, MCF-7 cells (from Dr. C. Jordan, Northwestern University) were maintained in RPMI 1640 phenol red free medium (Gibco) in 10% FBS (Hyclone), supplemented with bovine insulin and non-essential amino acid (Sigma). The cells were initially treated with 4-hydoxyltamoxifen (10^−8 M) and let stand at 37° C. for 24 hours. Following this incubation with tamoxifen, the cells were treated with compounds at various concentrations.
Compounds to be tested in the agonist mode were added to the culture media at varying concentrations. Compounds to be treated in the antagonist mode were prepared similarly, and 10 nM 17β-estradiol was also added to the culture media. The cells were incubated for 24 hours at 37° C. Following this incubation, 0.1 μCi of ^14C-thymidine (56 mCi/mmol, Amersham) was added to the culture media and the cells were incubated for an additional 24 hours at 37° C. The cells were then washed twice with Hank's buffered salt solution (HBSS) (Gibco) and counted with a scintillation counter. The increase in the ^14C-thymidine in the compound treated cells relative to the vehicle control cells were reported as percent increase in cell proliferation.

Ishikawa cells = experiment: Alkaline Phosphatase Assay in Human Endometrial Ishikawa Cells (agonist and antagonist mode); format: cell-based; conditions: number in brackets = number of tests, NA = no detected activity at test concentration; for EC50: agonist mode; for IC50: antagonist mode with 10 nM 17β-estradiol
Protocol: This assay was run according to the procedure described by Albert et a., Cancer Res, […], 50(11), 330-6-10, with minor modification.
Ishikawa cells (from ATCC) were maintained in DMEM/F12 (1:1) phenol red free medium (Gibco) supplemented with 10% calf serum (Hyclone). 24 hours prior to testing, the medium was changed to DMEM/F12 (1:1) phenol red free containing 2% calf serum.
Compounds to be tested in the agonist mode were added to the culture media at varying concentrations. Compounds to be treated in the antagonist mode were prepared similarly, and 10 nM 17β-estradiol was also added to the culture media. The cells were then incubated at 37° C. for 3 days. On the fourth day, the media was remove, 1 volume of 1× Dilution Buffer (Clontech) was added to the well followed by addition of 1 volume of Assay Buffer (Clontech). The cells were then incubated at room temperature for 5 minutes. […] The cells were incubated at room temperature for 10 minutes and then quantified on a luminometer. The increase of chemiluminescence over vehicle control was used to calculate the increase in alkaline phosphatase activity.

[1] = biological target: T1, human estrogen receptor α (Homo sapiens, UniProt P03372); experiment: Estrogen Receptor α Flash Plate Assay (binding of radiolabeled estrogen); conditions: flash plate binding, 0.5 nM radiolabeled estrogen; number in brackets = No. of determinations; NA = no detected activity at test concentration; read-out: Estrogen Receptor α in μM (No.)
T1 construct: purchased Panvera
T1 sequence (P03372 1-595): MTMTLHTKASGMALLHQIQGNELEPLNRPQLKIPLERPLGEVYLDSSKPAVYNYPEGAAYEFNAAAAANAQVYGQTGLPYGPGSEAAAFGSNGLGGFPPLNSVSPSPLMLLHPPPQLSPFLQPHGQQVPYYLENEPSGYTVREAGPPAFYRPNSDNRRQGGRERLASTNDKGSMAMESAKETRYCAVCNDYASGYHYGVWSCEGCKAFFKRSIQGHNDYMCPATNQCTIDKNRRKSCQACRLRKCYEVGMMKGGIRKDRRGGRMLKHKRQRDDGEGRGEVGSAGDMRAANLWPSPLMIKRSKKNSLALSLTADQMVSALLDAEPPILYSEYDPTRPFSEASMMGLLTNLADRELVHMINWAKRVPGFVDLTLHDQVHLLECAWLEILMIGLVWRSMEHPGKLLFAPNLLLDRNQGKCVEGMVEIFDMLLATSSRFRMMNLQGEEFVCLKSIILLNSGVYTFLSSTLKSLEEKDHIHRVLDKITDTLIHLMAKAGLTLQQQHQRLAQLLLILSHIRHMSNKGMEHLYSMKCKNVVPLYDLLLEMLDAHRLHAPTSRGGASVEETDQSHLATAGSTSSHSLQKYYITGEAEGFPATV
Protocol: This assay monitors binding of radiolabeled estrogen to the estrogen receptor. It is performed on a BioMek 2000 (Beckman). Plates are read in a scintillation counter (Packard TopCount), with decreased counts an indication of binding of a compound to the receptor.
The plate was sealed and incubated at 4° C. overnight.
On day two, each well was washed three times with 200 μL PBS, pH 7.2, at room temperature. To each well was then added 98 μL radiolabeled estrogen (0.5 nM, which equals 6 nCi for a 120 Ci/mmol batch, Amersham), diluted in ESB and 5 mM dithiothreitol (DTT). To individual wells were then added 2.5 μL test compound diluted in 30% (v/v) dimethyl sulfoxide/50 mM HEPES, pH 7.5. The wells were mixed three times by aspiration, the plate sealed and incubated at room temperature for one hour. The wells were then counted for 1 min in a TopCount scintillation counter (Packard).

[2] = Homo sapiens, MCF7, agonist mode
[3] = Homo sapiens, MCF7, antagonist mode with 10 nM 17β-estradiol
[4] = antagonist mode with 10 nM 17β-estradiol

| IC50 [1] | IC50 (MCF-7 cells; [4]) | IC50 (Ishikawa cells) | SMILES | also measured |
| --- | --- | --- | --- | --- |
| 0.0089 µM | > 10000 nM | > 10000 nM | COC(=O)COc1ccc(C2Oc3cc(O)ccc3C3=C2c2ccc(O)cc2OCC3)cc1 (racemic) [Compound 190] |  |
|  | 2940 nM | 850 nM | CN(C)CCOc1ccc(C2Oc3ccccc3C3=C2c2ccc(O)cc2OCC3)cc1 (single isomer, unassigned) [Compound 150] |  |
| 0.061 µM | > 10000 nM | 4940 nM | Oc1ccc2c(c1)OC(c1ccc(OCCN3CCCCC3)cc1)C1=C2CCOc2ccccc21 (single isomer, unassigned) [Compound 131] |  |
| 0.0048 µM | 1280 nM | 548 nM | Oc1ccc2c(c1)OC(c1ccc(OCCN3CCCCC3)cc1)C1=C2CCOc2ccccc21 (single isomer, unassigned) [Compound 132] |  |
|  | 2760 nM | 605 nM | CN(C)CCOc1ccc(C2Oc3ccccc3C3=C2c2ccc(O)cc2OCC3)cc1 (single isomer, unassigned) [Compound 151] |  |
|  | 293 nM | 61 nM | CN(C)CCOc1ccc(C2Oc3cc(O)ccc3C3=C2c2ccc(O)cc2OCC3)cc1 (single isomer, unassigned) [Compound 164] |  |
|  | 687 nM | 405 nM | CN(C)CCOc1ccc(C2Oc3cc(O)ccc3C3=C2c2ccc(O)cc2OCC3)cc1 (single isomer, unassigned) [Compound 163] |  |

Further lines, the compound ahead of its results:

| SMILES | IC50 [1] | IC50 (MCF-7 cells; [4]) | IC50 (Ishikawa cells) | also measured |
| --- | --- | --- | --- | --- |
| CC(C)(C)C(=O)Oc1ccc2c(c1)OC(C)(c1ccc(OCCN3CCCCCC3)cc1)C1=C2COc2cc(OC(=O)C(C)(C)C)ccc21 (stereo not shown) [Compound 33, 11-[4-(2-azepan-1-yl-ethoxy)-phenyl]-8-(2,2-dimethyl-propionyloxy)-11-methyl-5,11-dihydro-chromeno[4,3-c]chromen-2-yl ester] |  |  |  | EC50 (MCF-7 cells; [2]): > 10000 nM; IC50 (MCF-7 cells; [3]): 4800 nM; EC50 (Ishikawa cells; Homo sapiens): > 10000 nM; IC50 (Ishikawa cells; Homo sapiens): 1000 nM |
| CC(C)(C)C(=O)Oc1ccc2c(c1)OC(C)(c1ccc(OCCN3CCCCC3)cc1)C1=C2COc2cc(OC(=O)C(C)(C)C)ccc21 (stereo not shown) [Compound 41, 2,2-Dimethyl-propionic acid 8-(2,2-dimethyl-propionyloxy)-11-methyl-11-[4-(2-piperidin-1-yl-ethoxy)-phenyl]-5,11-dihydro-chromeno[4,3-c]chromen-2-yl ester] | 1.9 µM |  |  | EC50 (MCF-7 cells; [2]): > 10000 nM; IC50 (MCF-7 cells; [3]): > 10000 nM; EC50 (Ishikawa cells; Homo sapiens): > 10000 nM; IC50 (Ishikawa cells; Homo sapiens): 550 nM |
| CC(C)(C)C(=O)Oc1ccc2c(c1)OC(c1ccc(OCCN3CCCCC3)cc1)C1=C2COc2cc(OC(=O)C(C)(C)C)ccc21 (stereo not shown) [Compound 22, 2,2-Dimethyl-propionic acid, 8-(2,2-dimethyl-propionyloxy)-5-[4-(2-piperidin-1-yl-ethoxy)-phenyl]-5,11-dihydro-chromeno[4,3-c]chromen-2-yl ester] | 3.45 µM |  |  | EC50 (MCF-7 cells; [2]): > 10000 nM; IC50 (MCF-7 cells; [3]): 662 nM; EC50 (Ishikawa cells; Homo sapiens): > 10000 nM; IC50 (Ishikawa cells; Homo sapiens): 53.5 nM |
| Oc1ccc2c(c1)OC(c1ccc(OCCN3CCCCC3)cc1)C1=C2CCCOc2cc(O)ccc21 (single isomer, unassigned) [Compound 126] |  | 245 nM | 78 nM |  |
| COc1ccc2c(c1)OCCC1=C2C(c2ccc(OCCN3CCCCC3)cc2)Oc2cc(O)ccc21 (single isomer, unassigned) [Compound 196, 2-Methoxy-5S*-(−)-[4-(2-piperidin-1-yl-ethoxy)-phenyl]-11,12-dihydro-5H-6,13-dioxa-benzo[3,4]cyclohepta[1,2-a]naphthalen-8-ol] | 0.055 µM | > 1000 nM | 229 nM |  |
| CC(C)(C)C(=O)Oc1ccc2c(c1)OC(c1ccc(OCCN3CCCCC3)cc1)C1=C2CCOc2cc(OC(=O)C(C)(C)C)ccc21 (single isomer, unassigned) [Compound 180] |  | 655 nM | 0.9 nM |  |
| Oc1ccc2c(c1)OCCC1=C2C(c2ccc(OCCN3CCCCCC3)cc2)Oc2cc(F)ccc21 (single isomer, unassigned) [Compound 177] | 0.04 µM | 3000 nM | 259 nM |  |
| Oc1ccc2c(c1)OCCC1=C2C(c2ccc(OCCN3CCCCCC3)cc2)Oc2cc(F)ccc21 (single isomer, unassigned) [Compound 178] | 0.0064 µM and 0.0076 µM | 1480 nM | 125 nM |  |
| COC1Oc2cc(OC(=O)C(C)(C)C)ccc2C2=C1c1ccc(OC(=O)C(C)(C)C)cc1OC2c1ccc(OCCN2CCCCC2)cc1 (stereo not shown) [Compound 27] | 0.69 µM |  |  |  |
| CC(C)(C)C(=O)Oc1ccc2c(c1)OC(c1ccc(OCCN3CCCCC3)cc1)C1=C2COc2cc(OC(=O)C(C)(C)C)ccc21 (single isomer, unassigned) [Compound 25] | 1.2 µM | 1390 nM | 235 nM | EC50 (MCF-7 cells; agonist mode): > 10000 nM; EC50 (Ishikawa cells): > 10000 nM |
| COc1ccc2c(c1)OCC1=C2C(c2ccc(OCCN3CCCCC3)cc2)Oc2cc(OC(=O)C(C)(C)C)ccc21 (single isomer, unassigned) [Compound 175] | 0.66 µM |  |  | IC50 (MCF-7 cells; [3]): 5000 nM; IC50 (Ishikawa cells; Homo sapiens): 300 nM |
| Oc1ccc2c(c1)OC(c1ccc(OCCN3CCCCCC3)cc1)C1=C2CCOc2cc(O)ccc21 (single isomer, unassigned) [Compound 165] |  |  | 128 nM |  |
| CC(C)(C)C(=O)Oc1ccc2c(c1)OC(C)(c1ccc(OCCN3CCCC3)cc1)C1=C2COc2cc(OC(=O)C(C)(C)C)ccc21 (stereo not shown) [Compound 30, 2,2-Dimethyl-propionic acid, 8-(2,2-dimethyl-propionyloxy)-5-methyl-5-[4-(2-pyrrolidin-1-yl-ethoxy)-phenyl]-5,11-dihydro-chromeno[4,3-c]chromen-2-yl ester] |  |  |  | EC50 (MCF-7 cells; [2]): > 10000 nM; IC50 (MCF-7 cells; [3]): 2200 nM; EC50 (Ishikawa cells; Homo sapiens): > 10000 nM; IC50 (Ishikawa cells; Homo sapiens): 630 nM |
| CC(C)(C)C(=O)Oc1ccc2c(c1)OC(c1ccc(OCCN3CCCCC3)cc1)C1=C2CCOc2cc(OC(=O)C(C)(C)C)ccc21 (single isomer, unassigned) [Compound 179] |  | 1870 nM | 9 nM |  |
| COc1ccc2c(c1)O[C@@H](c1ccc(OCCN3CCCCC3)cc1)C1=C2COc2cc(O)ccc21 (single isomer, unassigned) [Compound 176, 8-Methoxy-5S-[4-(2-piperidin-1-yl-ethoxy)-phenyl]-5,11-dihydro-chromeno[4,3-c]chromen-2-ol] | 0.024 µM |  |  |  |
| Oc1ccc2c(c1)OC(c1ccc(OCCN3CCCCC3)cc1)C1=C2CCCOc2cc(O)ccc21 (single isomer, unassigned) [Compound 125] |  | 4700 nM | 1620 nM |  |
| Oc1ccc2c(c1)OC(c1ccc(OCCN3CCCCCC3)cc1)C1=C2CCOc2cc(O)ccc21 (single isomer, unassigned) [Compound 166] |  |  | 41 nM |  |
